Experimental data as given in US20180118721A1, “PYRIMIDINE DERIVATIVES” (Merck Patent GmbH, priority 2015, published 2018).

Biological target: T1, purified human recombinant MTH1 (human MTH1, residues 42-197) (Homo sapiens, UniProt P36639)
T1 construct: human MTH1, residues 42-197, Uniprot-ID: P36639, expressed in E. coli; made in house; host or cells: E. coli
Assay: MTH1 enzymatic assay (luminescence-based, PPiLight)
Assay type: biochemical
Details: 6 μM 8-oxo-dGTP, Table 1, grouped
Protocol: The IC50 value was determined by a MTH1 enzymatic assay. The assay comprises the principal steps of incubating a mixture of MTH1, the compound in question at different concentrations and 8-oxo-2′-deoxyguanosine-5′-triphosphate (8-oxo-dGTP) in assay buffer. Nucleotide triphosphate hydrolysis by MTH1, i.e. decomposition of 8-oxo-2′-deoxyguanosine-5′-triphosphate, produces 8-oxo-2′-deoxyguanosine-5′-monophosphate (8-oxo-dGMP) and pyrophosphate (PPi). The amount of generated pyrophosphate (PPi) is then measured by a bioluminescent reaction. In detail: The MTH1 (human mutT homologue 1) enzymatic assay is performed as a luminescence-based 384-well assay. […] The assay buffer contains 100 mM Tris-acetate pH 7.5, 40 mM NaCl, 10 mM Mg(OAc)2, 0.005% Tween 20 and 2 mM dithiothreitol (DTT). […] Then, in a second step, the substrate 8-oxo-dGTP is added and the reaction mixture is incubated for 30 minutes at 22° C. The pharmacologically relevant assay volume is 5 PI. The final concentrations in the assay during incubation of the reaction mixture are 0.1-0.2 nM, typically 0.1 nM, MTH1 and 6 μM 8-oxo-dGTP. After incubation of the reaction mixture, the generation of pyrophosphate (PPi) as a result of nucleotide triphosphate (8-oxo-dGTP) hydrolysis by MTH1 is detected using the PPiLight inorganic pyrophosphate assay kit (Lonza) (third step). 2 to 5 μl, such as 3 to 5 μl, typically 3 or 4 μl, for instance 4 μl, of a 1:1 mixture of PPiLight converting reagent (AMP) and PPiLight detection reagent are added to the reaction mixture. In the presence of pyrophosphate, the detection reagent catalyzes the conversion of AMP to ATP. Luciferase then produces light from the newly formed ATP and luciferin. The amount of light produced is directly proportional to the amount of PPi in the sample. Following signal development for 1 h the plates are analysed in an EnVision (PerkinElmer) microplate reader using the ultra sensitive luminescence option. Data are processed employing the Genedata Screener software. In particular, IC50 values are determined in the usual manner (using the Hill Equation) by fitting a dose-response curve to the data points using nonlinear regression analysis.
Hill Equation: Y=S0+(Sinf−S0)/(1+(10^logIC50/10^c)^n); Y: luminescence signal (response), S0: activity level at zero concentration of test compound, Sinf=activity level at infinite concentration, Hill coefficient n=measure of the slope at IC50, c=concentration in logarithmic units corresponding to the values on the x-axis of the dose response curve plot

Structure (SMILES)	IC50
CNc1cc(N2CC[C@@H](CO)C2)nc(N)n1 [Example 64, [(R)-1-(2-Amino-6-methylamino-pyrimidin-4-yl)-pyrrolidin-3-yl]-methanol]	< 1 nM
CNc1cc(N2CC[C@H](CO)C2)nc(N)n1 [Example 65, [(S)-1-(2-Amino-6-methylamino-pyrimidin-4-yl)-pyrrolidin-3-yl]-methanol]	< 1 nM
Nc1nc(NC2CC2)cc(N2CC[C@@H](CO)C2)n1 [Example 66, [(R)-1-(2-Amino-6-cyclopropylamino-pyrimidin-4-yl)-pyrrolidin-3-yl]-methanol]	< 1 nM
Nc1nc(NC2CC2)cc(N2CC[C@H](CO)C2)n1 [Example 67, [(S)-1-(2-Amino-6-cyclopropylamino-pyrimidin-4-yl)-pyrrolidin-3-yl]-methanol]	1 to 100 nM
CCNc1cc(N2CCC(F)(F)C2)nc(N)n1 [Example 68, 6-(3,3-Difluoro-pyrrolidin-1-yl)-N4-ethyl-pyrimidine-2,4-diamine]	1 to 100 nM
CC(C)Nc1cc(N2CCC(F)(F)C2)nc(N)n1 [Example 69, 6-(3,3-Difluoro-pyrrolidin-1-yl)-N4-isopropyl-pyrimidine-2,4-diamine]	1 to 100 nM
Nc1nc2c(c(N3CC[C@@H](O)C3)n1)CCCN2 [Example 70, (R)-1-(2-Amino-5,6,7,8-tetrahydro-pyrido[2,3-d]pyrimidin-4-yl)-pyrrolidin-3-ol]	< 1 nM
Nc1nc(NCC2CC2)cc(N2CCC(F)(F)C2)n1 [Example 71, N4-Cyclopropylmethyl-6-(3,3-difluoro-pyrrolidin-1-yl)-pyrimidine-2,4-diamine]	1 to 100 nM
CCCNc1cc(N2CCC(F)(F)C2)nc(N)n1 [Example 72, 6-(3,3-Difluoro-pyrrolidin-1-yl)-N4-propyl-pyrimidine-2,4-diamine]	1 to 100 nM
Nc1nc2c(c(N3CC[C@H](O)C3)n1)CCCN2 [Example 73, (S)-1-(2-Amino-5,6,7,8-tetrahydro-pyrido[2,3-d]pyrimidin-4-yl)-pyrrolidin-3-ol-formiate]	1 to 100 nM
FC1(F)CCN(c2ncnc3c2CCCN3)C1 [Example 74, 4-(3,3-Difluoro-pyrrolidin-1-yl)-5,6,7,8-tetrahydro-pyrido[2,3-d]pyrimidine]	> 100 nM
NC(=O)[C@@H]1CCN(c2nc(N)nc3c2CCCN3)C1 [Example 75, (R)-1-(2-Amino-5,6,7,8-tetrahydro-pyrido[2,3-d]pyrimidin-4-yl)-pyrrolidine-3-carboxylic acid amide-trifluoroacetate]	> 100 nM
CNc1cc(N2CCCC(O)(c3ccccc3)C2)nc(N)n1 (stereo not shown) [Example 79, 1-(2-Amino-6-methylamino-pyrimidin-4-yl)-3-phenyl-piperidin-3-ol]	1 to 100 nM
Nc1nc(NC2CC2)cc(N2CCCC2C(=O)O)n1 (stereo not shown) [Example 80, 1-(2-Amino-6-cyclopropylamino-pyrimidin-4-yl)-pyrrolidine-2-carboxylic acid]	> 100 nM
CNc1cc(N2CCCC2Cc2ccccc2OC)nc(N)n1 (stereo not shown) [Example 82, 6-[2-(2-Methoxy-benzyl)-pyrrolidin-1-yl]-N4-methyl-pyrimidine-2,4-diamine]	< 1 nM
CNc1cc(N2CCCC2C(C)(C)c2ccccc2)nc(N)n1 (stereo not shown) [Example 83, N4-Methyl-6-[2-(1-methyl-1-phenylethyl)-pyrrolidin-1-yl]-pyrimidine-2,4-diamine]	< 1 nM
CNc1cc(N2CCCC2Cc2ccccc2C)nc(N)n1 (stereo not shown) [Example 89, N4-Methyl-6-[2-(2-methyl-benzyl)-pyrrolidin-1-yl]-pyrimidine-2,4-diamine]	< 1 nM
CNc1cc(N2CCC[C@@H]2Cc2ccccc2OC)nc(N)n1 [Example 93, 6-[(R)-2-(2-Methoxy-benzyl)-pyrrolidin-1-yl]-N4-methyl-pyrimidine-2,4-diamine]	< 1 nM
CNc1cc(N2CC(c3ccccc3)CC2=O)nc(N)n1 (stereo not shown) [Example 96, 1-(2-Amino-6-methylamino-pyrimidin-4-yl)-4-phenyl-pyrrolidin-2-one]	> 100 nM
